# Data published in ChEMBL document CHEMBL4177606, “Synthesis of novel 1,2,5-oxadiazoles and evaluation of action against Acinetobacter baumannii” (2017).
# System: Acinetobacter baumannii
# Assay: Antibacterial activity against Acinetobacter baumannii ATCC 17978 after 24 to 48 hrs in presence of iron chelator 2,2'-dipyridyl by CLSI method
# Type: functional
row,SMILES,MIC [µM]
1,Cc1nonc1NC(=O)CSc1nc2ccccc2[nH]1,2000
2,Cc1nonc1NC(=O)CSc1ccccn1,2000
3,Cc1nonc1NC(=O)CSc1ccc2ccccc2c1,> 4000
4,O=C(CCc1ccccc1)Nc1nonc1-c1ccccc1,> 4000
5,Cc1nonc1NC(=O)COc1ccccc1,2000
6,Cc1nonc1NC(=O)CSc1ncccn1,4000
7,CCCc1nonc1NC(=O)CCc1ccccc1,1000
8,Cc1nonc1NC(=O)/C=C/c1ccccc1O,500
9,Cc1nonc1NC(=O)CCc1ccccc1,1000
10,Cc1ccnc(SCC(=O)Nc2nonc2C)n1,4000
11,Cc1nonc1NC(=O)CSc1nc2ccccc2s1,> 4000
12,O=C(COc1ccccc1)Nc1nonc1-c1ccccc1,> 4000
13,Cc1nonc1NC(=O)CN(CC(=O)Nc1nonc1C)c1ccccc1,> 4000
14,O=C(/C=C/c1ccccc1)Nc1nonc1-c1ccccc1,> 4000
15,Cc1nonc1NC(=O)COc1ccc(Cl)cc1,1000
16,Cc1nonc1NC(=O)COc1cccc2ccccc12,> 4000

row,SMILES,MIC [µM]
1,CC(=O)Oc1ccccc1/C=C/C(=O)Nc1nonc1C,2000
2,Cc1nonc1NC(=O)/C=C/c1ccc(O)c(O)c1,> 4000
3,Cc1nonc1NC(=O)CSc1ccccc1,1000
4,CCCc1nonc1NC(=O)/C=C/c1ccccc1,> 4000
5,O=C(CSc1ccccc1)Nc1nonc1-c1ccccc1,> 4000
6,Cc1nonc1NC(=O)COc1cccc(Cl)c1Cl,> 4000
7,Cc1nonc1NC(=O)c1ccc2ccccc2c1,4000
8,Cc1nonc1NC(=O)COc1ccc(Cl)c(Cl)c1,1000
9,CC(=O)Oc1ccc(/C=C/C(=O)Nc2nonc2C)cc1OC(C)=O,4000
10,Cc1nonc1NC(=O)COc1ccccc1Cl,> 4000
11,O=C(COc1ccccc1Cl)Nc1nonc1-c1ccccc1,> 4000
12,COc1ccc(CCC(=O)Nc2nonc2C)cc1,2000
13,Cc1nonc1NC(=O)/C=C/c1ccccc1,1000
14,Cc1nonc1NC(=O)CSC1=NCCS1,2000
15,Cc1nonc1NC(=O)c1cccc2ccccc12,1000
